From BindingDB's records for aid1799744 (Csar, 2012)

Molecular target: Mitogen-activated protein kinase 1 (Homo sapiens, UniProt P28482)
Test: Assay 1

Sequence of Mitogen-activated protein kinase 1 (P28482 whole entry): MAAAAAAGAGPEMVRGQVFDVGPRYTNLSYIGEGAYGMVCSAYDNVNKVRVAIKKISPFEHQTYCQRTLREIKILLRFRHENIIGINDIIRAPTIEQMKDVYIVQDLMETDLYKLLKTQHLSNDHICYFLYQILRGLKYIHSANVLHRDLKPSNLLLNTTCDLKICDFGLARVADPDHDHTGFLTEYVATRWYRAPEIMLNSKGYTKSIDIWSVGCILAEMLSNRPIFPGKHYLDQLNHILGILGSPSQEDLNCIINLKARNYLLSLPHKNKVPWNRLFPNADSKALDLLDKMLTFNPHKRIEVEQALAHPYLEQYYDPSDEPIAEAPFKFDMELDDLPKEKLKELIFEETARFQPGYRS

Ki	SMILES
0.004 µM	CC[C@@H](CO)Nc1ncc(Cl)c(-c2cc(C(=O)N[C@H](CO)c3ccccc3)n(C)c2)n1 [erk000710]
0.038 µM	CC[C@@H](CO)Nc1ncc(Cl)c(N2CCN(C(=O)N[C@H](CO)c3cccc(Cl)c3)CC2)n1 [erk000711]
0.191 µM	Fc1cccc(-c2cnoc2-c2c[nH]c3ncc(-c4ccncc4)cc23)c1F [erk000712]
0.117 µM	CC[C@@H](COC(=O)CCC(=O)O)Nc1ncc(C)c(-c2c[nH]c(C(=O)N[C@H](COC(=O)CCC(=O)O)c3cccc(Cl)c3)c2)n1 [erk000713]
0.03 µM	CC[C@@H](COC(=O)[C@@H](N)C(C)(C)C)Nc1ncc(C)c(-c2c[nH]c(C(=O)N[C@H](COC(=O)[C@@H](N)C(C)(C)C)c3cccc(Cl)c3)c2)n1 [erk000714]
1.91 µM	CC[C@@H](COC(=O)[C@@H](NC)C(C)C)Nc1ncc(C)c(-c2c[nH]c(C(=O)N[C@H](COC(=O)[C@@H](NC)C(C)C)c3cccc(Cl)c3)c2)n1 [erk000715]
0.427 µM	CC[C@@H](COC(=O)COCCOC)Nc1ncc(C)c(-c2c[nH]c(C(=O)N[C@H](COC(=O)COCCOC)c3cccc(Cl)c3)c2)n1 [erk000716]
0.038 µM	CC[C@@H](COC(=O)[C@H](C)N)Nc1ncc(C)c(-c2c[nH]c(C(=O)N[C@H](COC(=O)[C@H](C)N)c3cccc(Cl)c3)c2)n1 [erk000717]
0.257 µM	CC[C@@H](COC(=O)CCC(=O)N1CCOCC1)Nc1ncc(C)c(-c2c[nH]c(C(=O)N[C@H](COC(=O)CCC(=O)N3CCOCC3)c3cccc(Cl)c3)c2)n1 [erk000718]
0.525 µM	CC[C@@H](COC(=O)[C@H](CC(C)C)NC)Nc1ncc(C)c(-c2c[nH]c(C(=O)N[C@H](COC(=O)[C@H](CC(C)C)NC)c3cccc(Cl)c3)c2)n1 [erk000719]
0.2 µM	CC[C@@H](COC(=O)C(C)(C)N)Nc1ncc(C)c(-c2c[nH]c(C(=O)N[C@H](COC(=O)C(C)(C)N)c3cccc(Cl)c3)c2)n1 [erk000720]
0.004 µM	CC[C@@H](CO)Nc1ncc(C)c(-c2c[nH]c(C(=O)N[C@H](COP(=O)(O)O)c3cccc(Cl)c3)c2)n1 [erk000721]
0.417 µM	CC[C@@H](COP(=O)(O)O)Nc1ncc(C)c(-c2c[nH]c(C(=O)N[C@H](CO)c3cccc(Cl)c3)c2)n1 [erk000722]
0.407 µM	C[C@@H]1CCN(C(=O)CC#N)C[C@@H]1N(C)c1nc(Nc2ccc(N3CCOCC3)cc2)nc2[nH]cnc12 [erk000723]

Continued, compound first:

SMILES	Ki
CCOC(=O)OC[C@H](CC)Nc1ncc(C)c(-c2c[nH]c(C(=O)N[C@H](CO)c3cccc(Cl)c3)c2)n1 [erk000669]	0.027 µM
O=C(N[C@H](CO)c1cccc(Cl)c1)c1cc(-c2ncnc(Nc3ccccc3)n2)c[nH]1 [erk000671]	0.002 µM
CC(C)Nc1cc(-c2c[nH]c(C(=O)N[C@H](CO)c3cccc(Cl)c3)c2)ncn1 [erk000672]	0.03 µM
CC[C@@H](CO)Nc1cc(-c2c[nH]c(C(=O)N[C@H](CO)c3cccc(Cl)c3)c2)ncn1 [erk000673]	0.018 µM
Cc1cnc(N[C@@H](CO)CC(F)(F)F)nc1-c1c[nH]c(C(=O)N[C@H](CO)c2cccc(Cl)c2)c1 [erk000675]	0.008 µM
CCOP(=O)(OCC)OC[C@H](CC)Nc1ncc(C)c(-c2c[nH]c(C(=O)N[C@H](COP(=O)(OCC)OCC)c3cccc(Cl)c3)c2)n1 [erk000676]	1.07 µM
Cc1cnc(N[C@@H](C)COC(=O)C(C)C)nc1-c1c[nH]c(C(=O)N[C@H](COC(=O)C(C)C)c2cccc(Cl)c2)c1 [erk000677]	1.32 µM
CC[C@@H](CO)Nc1ncc(C)c(-c2cc(C(=O)N[C@H](CO)c3cccc(Cl)c3)n(CC)c2)n1 [erk000678]	0.004 µM
CCn1cc(-c2nc(N[C@@H](C)CO)ncc2C)cc1C(=O)N[C@H](CO)c1cccc(Cl)c1 [erk000679]	0.005 µM
CCn1cc(-c2nc(NCC(F)(F)F)ncc2C)cc1C(=O)N[C@H](CO)c1cccc(Cl)c1 [erk000680]	0.034 µM
CC(=O)OC[C@H](C)Nc1ncc(C)c(-c2c[nH]c(C(=O)N[C@H](COC(C)=O)c3cccc(Cl)c3)c2)n1 [erk000682]	0.331 µM
CC[C@@H](COC(=O)OC(C)C)Nc1ncc(C)c(-c2c[nH]c(C(=O)N[C@H](CO)c3cccc(Cl)c3)c2)n1 [erk000684]	0.158 µM
CC[C@@H](COC(=O)[C@@H](N)C(C)C)Nc1ncc(C)c(-c2c[nH]c(C(=O)N[C@H](COC(=O)[C@@H](N)C(C)C)c3cccc(Cl)c3)c2)n1 [erk000685]	0.759 µM
CC[C@@H](COC(=O)C(C)C)Nc1ncc(C)c(-c2c[nH]c(C(=O)N[C@H](CO)c3cccc(Cl)c3)c2)n1 [erk000689]	0.015 µM
CCOP(=O)(OCC)OC[C@H](CC)Nc1ncc(C)c(-c2c[nH]c(C(=O)N[C@H](CO)c3cccc(Cl)c3)c2)n1 [erk000690]	1.1 µM
Cc1cnc(N)nc1-c1c[nH]c(C(=O)N[C@H](CO)c2cccc(Cl)c2)c1 [erk000691]	0.015 µM

SMILES	Ki
Cc1cnc(NCC(F)(F)F)nc1-c1cc(C(=O)N[C@H](CO)c2cccc(Cl)c2)n(C)c1 [erk000692]	0.006 µM
CC[C@@H](CO)Nc1ncc(C)c(-c2c[nH]c(C(=O)N[C@H](COC(=O)OC(C)C)c3cccc(Cl)c3)c2)n1 [erk000693]	0.037 µM
CC[C@@H](CO)Nc1ncc(C)c(-c2cc(C(=O)N[C@H](CO)c3cccc(Cl)c3)n(COC)c2)n1 [erk000694]	0.005 µM
CC[C@@H](COC(=O)C(C)C)Nc1ncc(Cl)c(-c2c[nH]c(C(=O)N[C@H](COC(=O)C(C)C)c3ccccc3)c2)n1 [erk000696]	0.151 µM
CC[C@@H](CO)Nc1ncc(F)c(-c2c[nH]c(C(=O)N[C@H](CO)c3cccc(Cl)c3)c2)n1 [erk000697]	0.003 µM
CC[C@@H](COC(=O)COCCOC)Nc1ncc(C)c(-c2c[nH]c(C(=O)N[C@H](CO)c3cccc(Cl)c3)c2)n1 [erk000698]	0.017 µM
CC[C@@H](COC(=O)COCCOCCOC)Nc1ncc(C)c(-c2c[nH]c(C(=O)N[C@H](CO)c3cccc(Cl)c3)c2)n1 [erk000699]	0.013 µM
Cc1[nH]c(C(=O)N[C@H](CO)c2cccc(Cl)c2)c(C)c1-c1ccnc(Nc2ccc(F)cc2Cl)n1 [erk000700]	0.009 µM
CCONc1ncc(C)c(-c2cc(C(=O)N[C@H](CO)c3cccc(Cl)c3)n(C)c2)n1 [erk000701]	0.013 µM
CC[C@@H](COC(=O)C(C)(C)C)Nc1ncc(C)c(-c2c[nH]c(C(=O)N[C@H](CO)c3cccc(Cl)c3)c2)n1 [erk000702]	0.055 µM
CCOC(=O)N1CCC(Nc2ncc(Cl)c(-c3c[nH]c(C(=O)N[C@H](CO)c4cccc(Cl)c4)c3)n2)CC1 [erk000703]	0.007 µM
Cc1cnc(N[C@H]2CCOC2)nc1-c1cc(C(=O)N[C@H](CO)c2ccccc2)n(C)c1 [erk000704]	0.003 µM
CCONc1ncc(Cl)c(-c2c[nH]c(C(=O)N[C@H](CO)c3cccc(C)c3)c2)n1 [erk000705]	0.004 µM
Cc1cnc(N[C@@H](C)CO)nc1-c1cc(C(=O)N[C@H](CO)c2ccccc2)n(C)c1 [erk000706]	0.006 µM
CC(C)Nc1ncc(Cl)c(-c2c[nH]c(C(=O)N(C)[C@H](CO)c3ccccc3)c2)n1 [erk000708]	0.006 µM
CC[C@@H](CO)Nc1ncc(C)c(-c2c[nH]c(C(=O)N(C)[C@H](CO)c3cccc(Cl)c3)c2)n1 [erk000709]	0.002 µM
